In the supplement of paper PMC11061612 one finds Bliss excess data, which are given here for six compounds.

Each structure is given as a SMILES string.

Holding throughout (assay): Bliss excess, mean over the matrix (fraction); higher = more synergy
The test system of experiment [1] is OV-56 (Ovarian Carcinoma). Summed up:
(§1)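 Cell lines in DMEM/F12 or RPMI with 10% FBS were plated in 1536-well plates, held 24 hours at 37°C, 5% CO2, then given two-drug dose matrices for 72 hours (DMSO typically 0.2%). Viability was read by CellTiter-Glo 2.0 luminescence and scaled as inhibition from 0 (vehicle wells) to 1 (blank wells). Combination Emax is the second-highest inhibition in the matrix; Bliss excess is observed combination effect minus expected EA + EB − EA·EB, EA and EB being single-agent effects.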

For the next experiment, the system named is CAL-72 (Osteosarcoma). An outline of the steps:
as §1

Experiment [2] has as its system NCI-H524 (Small Cell Lung Carcinoma). Summed up:
as §1

Experiment [3] concerns L-428 (Hodgkin's Lymphoma). An outline of the steps: as §1
The subject of experiment [4] is HH (T-Cell Non-Hodgkin's Lymphoma). Summed up:
as §1

The subject of the next experiment is NCI-H2722 (Mesothelioma). Summed up:
as §1

For experiment [5], the system named is LCLC-97TM1 (Non-Small Cell Lung Carcinoma). Summed up:
as §1

The next experiment concerns NCI-H2052 (Mesothelioma). Summed up: as §1
Another experiment has as its system MPP-89 (Mesothelioma). Summed up:
as §1

In a further experiment the test system is BPH-1 (Non-Cancerous). Summed up:
as §1

In experiment [6] the test system is HuCCT1 (Biliary Tract Carcinoma). Summed up: as §1
A further experiment concerns BE2-M17 (Neuroblastoma). An outline of the steps:
as §1

Experiment [7] deals with BE-13 (T-Lymphoblastic Leukemia). An outline of the steps:
as §1

Experiment [8] relates to ALL-PO (B-Lymphoblastic Leukemia). Summed up: as §1
A further experiment has as its system GAMG (Glioblastoma). An outline of the steps:
as §1

In experiment [9] the test system is LS-123 (Colorectal Carcinoma). An outline of the steps:
as §1

Experiment [10] relates to HeLa (Cervical Carcinoma). Summed up: as §1
Experiment [11] relates to SNU-449 (Hepatocellular Carcinoma). Summed up: as §1
Another experiment has as its system EW-11 (Ewing's Sarcoma). Summed up: as §1
Experiment [12] has as its system HuH-7 (Hepatocellular Carcinoma). Summed up: as §1

Turning to `Cn1cnc2c(F)c(Nc3ccc(Br)cc3Cl)c(C(=O)NOCCO)cc21` [Selumetinib] + CC(C)n1c(=O)n(C)c2cnc3cc(F)c(-c4ccc(OCCCN5CCCCC5)nc4)cc3c21 [AZD1390] (first compound max 10 µM, 7x7, partner max 0.3 µM), the Bliss excess was -0.0526 in [1]; -0.0484 in the experiment on CAL-72 (Osteosarcoma); -0.0286 in experiment [2]; -0.0231 in [3]; -0.0536 in [4]; -0.0678 in the experiment with NCI-H2722 (Mesothelioma). Besides, the Bliss excess was 0.0069 in experiment [5]; -0.0242 with NCI-H2052 (Mesothelioma); -0.069 in the experiment with MPP-89 (Mesothelioma); 0.026 in the experiment with BPH-1 (Non-Cancerous); 0.0231 in experiment [6]; -0.0293 in the experiment on BE2-M17 (Neuroblastoma). In addition, the Bliss excess was -0.0283 in [7]; 0.0208 in [8]; -0.0242 with GAMG (Glioblastoma); 0.0194 in experiment [9]; -0.0437 in experiment [10]; -0.0464 in experiment [11]. For the same compound, the Bliss excess is -0.0399 in the experiment on EW-11 (Ewing's Sarcoma) and -0.0205 in experiment [12].
Regarding `Cn1cnc2c(F)c(Nc3ccc(Br)cc3Cl)c(C(=O)NOCCO)cc21` [Selumetinib] + CCN(CCO)CCCOc1ccc2c(Nc3cc(CC(=O)Nc4cccc(F)c4)[nH]n3)ncnc2c1 [AZD2811] (first compound max 10 µM, 7x7, partner max 1 µM), the Bliss excess in experiment [1] was -0.0677; in the experiment with CAL-72 (Osteosarcoma) it was -0.0369; in [2] it was -0.0101; in experiment [3], 0.0174; in experiment [4], -0.0825; with NCI-H2722 (Mesothelioma) it was -0.0834. Further, the Bliss excess in experiment [5] was 0.0594; in the experiment with NCI-H2052 (Mesothelioma), -0.0388; in the experiment on MPP-89 (Mesothelioma), -0.0325; in the experiment on BPH-1 (Non-Cancerous) it was 0.0204; in [6], 0.0066; in the experiment on BE2-M17 (Neuroblastoma) it was -0.0073. Moreover, the Bliss excess in experiment [7] was -0.0213; in [8], -0.0029; in the experiment with GAMG (Glioblastoma), -0.0213; in [9], 0.0199; in experiment [10], -0.0561; in experiment [11], -0.0582. For the same compound, the Bliss excess was -0.0705 with EW-11 (Ewing's Sarcoma) and -0.0164 in experiment [12].
Consider `Cn1cnc2c(F)c(Nc3ccc(Br)cc3Cl)c(C(=O)NOCCO)cc21` [Selumetinib] + C[C@@H]1COCCN1C2=NC(=NC(=C2)C3(CC3)[S@](=N)(=O)C)C4=C5C=CNC5=NC=C4 [AZD6738] (first compound max 10 µM, 7x7, partner max 10 µM), for which the Bliss excess is -0.0239 in experiment [1]; -0.0387 in the experiment with CAL-72 (Osteosarcoma); -0.0293 in experiment [2]; -0.0311 in experiment [3]; -0.038 in experiment [4]; -0.0455 in the experiment with NCI-H2722 (Mesothelioma). The Bliss excess in [5] was -0.0043; in the experiment on NCI-H2052 (Mesothelioma), 0.0119; in the experiment with MPP-89 (Mesothelioma), -0.0424; in the experiment with BPH-1 (Non-Cancerous), 0.108; in experiment [6], -0.0164; in the experiment on BE2-M17 (Neuroblastoma), 0.0348. In addition, the Bliss excess is -0.0181 in experiment [7]; 0.0391 in experiment [8]; -0.0398 with GAMG (Glioblastoma); 0.0709 in [9]; 0.0113 in experiment [10]; -0.0403 in experiment [11]. Moreover, the values for the Bliss excess (in the experiment with EW-11 (Ewing's Sarcoma); in experiment [12]) were -0.0605 and -0.0221, respectively.
For the compound `CC(=O)Nc1cccc(-n2c(=O)n(C3CC3)c(=O)c3c(Nc4ccc(I)cc4F)n(C)c(=O)c(C)c32)c1` [Trametinib] + Cc1nc(-c2cn3c(n2)-c2ccc(-c4cnn(C(C)(C)C(N)=O)c4)cc2OCC3)n(C(C)C)n1 [Taselisib] (first compound max 1 µM, 7x7, partner max 10 µM), the Bliss excess in experiment [1] was -0.0025; with CAL-72 (Osteosarcoma) it was -0.0264; in [2], -0.112; in experiment [3] it was -0.0045; in experiment [4], 0.0868; with NCI-H2722 (Mesothelioma), -0.0078. Further, the Bliss excess is 0.0752 in [5]; -0.0231 in the experiment on NCI-H2052 (Mesothelioma); 0.103 in the experiment on MPP-89 (Mesothelioma); 0.0283 in the experiment with BPH-1 (Non-Cancerous); 0.182 in experiment [6]; 0.107 in the experiment on BE2-M17 (Neuroblastoma). The Bliss excess in experiment [7] was -0.0123; in experiment [8] it was 0.318; in the experiment on GAMG (Glioblastoma), 0.0415; in experiment [9] it was 0.0939; in experiment [10] it was 0.0483; in experiment [11], -0.0432. The Bliss excess turned out to be 0.0443 in the experiment with EW-11 (Ewing's Sarcoma) and 0.0875 in experiment [12].
As for `CC1(C)CCC(CN2CCN(c3ccc(C(=O)NS(=O)(=O)c4ccc(NCC5CCOCC5)c([N+](=O)[O-])c4)c(Oc4cnc5[nH]ccc5c4)c3)CC2)=C(c2ccc(Cl)cc2)C1` [Venetoclax] + C1CN(CCC1(C(=O)N[C@@H](CCO)C2=CC=C(C=C2)Cl)N)C3=NC=NC4=C3C=CN4 [Capivasertib] (first compound max 1 µM, 7x7, partner max 3 µM), the Bliss excess is -0.0323 in experiment [1]; -0.04 in the experiment with CAL-72 (Osteosarcoma); -0.0624 in [2]; -0.0577 in experiment [3]; 0.0213 in [4]; -0.0671 in the experiment on NCI-H2722 (Mesothelioma). Moreover, the Bliss excess is -0.033 in experiment [5]; -0.0269 in the experiment on NCI-H2052 (Mesothelioma); -0.0361 in the experiment on MPP-89 (Mesothelioma); -0.033 with BPH-1 (Non-Cancerous); -0.0734 in [6]; -0.0682 in the experiment on BE2-M17 (Neuroblastoma). In addition, the Bliss excess in experiment [7] was -0.0684; in experiment [8] it was 0.0446; with GAMG (Glioblastoma), -0.0185; in experiment [9] it was -0.0134; in experiment [10], -0.0669; in experiment [11], -0.075. The figures for the Bliss excess (in the experiment with EW-11 (Ewing's Sarcoma); in experiment [12]) were -0.0335 and -0.0537, respectively.
Take `CC1(C)CCC(CN2CCN(c3ccc(C(=O)NS(=O)(=O)c4ccc(NCC5CCOCC5)c([N+](=O)[O-])c4)c(Oc4cnc5[nH]ccc5c4)c3)CC2)=C(c2ccc(Cl)cc2)C1` [Venetoclax] + C=CCn1c(=O)c2cnc(Nc3ccc(N4CCN(C)CC4)cc3)nc2n1-c1cccc(C(C)(C)O)n1 [AZD1775] (first compound max 1 µM, partner max 1 µM): the Bliss excess in [1] was -0.0114; in the experiment with CAL-72 (Osteosarcoma) it was 0.0256; in experiment [2], 0.0089; in experiment [3], -0.0298; in experiment [4], 0.029; with NCI-H2722 (Mesothelioma), -0.0631. Further, the Bliss excess in experiment [5] was -0.0364; in the experiment with NCI-H2052 (Mesothelioma) it was -0.0145; in the experiment with MPP-89 (Mesothelioma) it was 0.1; in the experiment on BPH-1 (Non-Cancerous) it was -0.0548; in experiment [6], -0.0281; in the experiment with BE2-M17 (Neuroblastoma), -0.0256. Further, the Bliss excess in [7] is 0.0227; in experiment [8], 0.136; with GAMG (Glioblastoma), 0.0112; in experiment [9], -0.0165; in experiment [10] it was -0.0459; in experiment [11], -0.0353. The Bliss excess with EW-11 (Ewing's Sarcoma) was 0.0341; in experiment [12] it was -0.0247.
